Laboratory results: US10329289B2, “6,7-dihydro-5H-pyrrolo[3,4-B]pyridin-5-one allosteric modulators of the M4 muscarinic acetylcholine receptor” (Merck Sharp & Dohme Corp., priority 2015, dated 2019)

Molecular target: T1, human M4 muscarinic acetylcholine receptor (Homo sapiens, UniProt P08173)
T1 construct: expressed in transfected cells; host or cells: CHO-K1
T1 sequence (P08173 1-479): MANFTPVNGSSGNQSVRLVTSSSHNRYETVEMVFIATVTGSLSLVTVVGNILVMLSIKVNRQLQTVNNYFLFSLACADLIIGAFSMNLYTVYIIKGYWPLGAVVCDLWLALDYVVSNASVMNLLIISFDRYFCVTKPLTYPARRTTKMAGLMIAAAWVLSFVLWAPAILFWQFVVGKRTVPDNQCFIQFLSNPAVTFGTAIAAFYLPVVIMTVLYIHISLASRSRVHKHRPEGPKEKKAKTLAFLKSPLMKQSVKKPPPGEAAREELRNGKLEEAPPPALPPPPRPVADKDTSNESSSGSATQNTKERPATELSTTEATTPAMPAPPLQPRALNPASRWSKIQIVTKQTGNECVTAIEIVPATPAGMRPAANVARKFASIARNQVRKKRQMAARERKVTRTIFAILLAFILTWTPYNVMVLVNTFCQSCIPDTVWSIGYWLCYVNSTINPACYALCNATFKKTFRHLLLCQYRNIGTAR
Test: human FLIPR-based M4 PAM assay (Ca2+ mobilization, CHO-K1 cells with human M4 receptor and Gαqi5)
Assay type: cell-based
Conditions: acetylcholine at 20% of maximum response, read-out: M4 PAM IP
Outline: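 Calcium-mobilization (FLIPR) readout in dye-loaded CHO-K1 cells co-expressing human M4 receptor and Gαqi5. Potentiation measured against acetylcholine at a concentration giving 20% of maximal response, with an optional 70% addition; the reported value is the curve inflection point from a 4-parameter logistic fit.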

| Structure (SMILES) | EC50 |
| --- | --- |
| Cc1cc2c(nc1N1CCC(Oc3ccc4c(c3)CCOC4=O)CC1)CNC2=O [Example 121, 3-methyl-2-(4-((1-oxoisochroman-6-yl)oxy)piperidin-1-yl)-6,7-dihydro-5H-pyrrolo[3,4-b]pyridin-5-one] | 1920 nM |
| Cc1nc2ccc(OC3CCN(c4nc5c(cc4C)C(=O)NC5)CC3)cc2s1 [Example 122, 3-methyl-2-(4-((2-methylbenzo[d]thiazol-6-yl)oxy)piperidin-1-yl)-6,7-dihydro-5H-pyrrolo[3,4-b]pyridin-5-one] | 2110 nM |
| Cc1cc2c(nc1N1CCC(Oc3ccc(OC(F)(F)F)nc3)CC1)CNC2=O [Example 124, 3-methyl-2-(4-((6-(trifluoromethoxy)pyri-din-3-yl)oxy)piperidin-1-yl)-6,7-dihydro-5H-pyrrolo[3,4-b]pyridin-5-one] | 362 nM |
| Cc1cc2c(nc1N1CCC(Oc3ccc4c(c3)C(C)(C)CCO4)CC1)CNC2=O [Example 125, 2-(4-((4,4-dimethylchroman-6-yl)oxy)piperidin-1-yl)-3-methyl-6,7-dihydro-5H-pyrrolo[3,4-b]pyridin-5-one] | 612 nM |
| Cc1cc2c(nc1N1CCC(Oc3ccc4c(c3)CCC(C)(C)O4)CC1)CNC2=O [Example 127, 2-(4-((2,2-dimethylchroman-6-yl)oxy)piperidin-1-yl)-3-methyl-6,7-dihydro-5H-pyrrolo[3,4-b]pyridin-5-one] | 480 nM |
| Cc1cc2c(nc1N1CCC(Oc3ccc4ccc(=O)[nH]c4c3)CC1)CNC2=O [Example 128, 7-((1-(3-methyl-5-oxo-6,7-dihydro-5H-pyrrolo[3,4-b]pyridin-2-yl)piperidin-4-yl)oxy)quinolin-2(1H)-one] | 2370 nM |
| Cc1cc2c(nc1N1CCC(Oc3ccc4c(c3)c(C)nn4C)CC1)CNC2=O [Example 129, 2-(4-((1,3-dimethyl-1H-indazol-5-yl)oxy)piperidin-1-yl)-3-methyl-6,7-dihydro-5H-pyrrolo[3,4-b]pyridin-5-one] | 1090 nM |
| Cc1cc2c(nc1N1CCC(Oc3ccccn3)CC1)CNC2=O [Example 131, 3-methyl-2-(4-(pyridin-2-yloxy)piperidin-1-yl)-6,7-dihydro-5H-pyrrolo[3,4-b]pyridin-5-one] | 1520 nM |
| Cc1cc2c(nc1N1CCC(Oc3ccc4c(c3)OCC(=O)N4)CC1)CNC2=O [Example 133, 7-((1-(3-methyl-5-oxo-6,7-dihydro-5H-pyrrolo[3,4-b]pyridin-2-yl)piperidin-4-yl)oxy)-2H-benzo[b][1,4]oxazin-3(4H)-one] | 611 nM |
| Cc1cc2c(nc1N1CCC(Oc3cnc4c(c3)oc(=O)n4C)CC1)CNC2=O [Example 136, 3-methyl-6-((1-(3-methyl-5-oxo-6,7-dihydro-5H-pyrrolo[3,4-b]pyridin-2-yl)piperidin-4-yl)oxy)oxazolo[4,5-b]pyridin-2(3H)-one] | 3470 nM |
| Cc1cc2c(nc1N1CCC(Oc3ccc4c(c3)CN(C(=O)OC(C)(C)C)CC4)CC1)CNC2=O [Example 137, tert-butyl 7-((1-(3-methyl-5-oxo-6,7-dihydro-5H-pyrrolo[3,4-b]pyridin-2-yl)piperidin-4-yl)oxy)-3,4-dihydroisoquinoline-2(1H)-carboxylate] | 515 nM |
| Cc1cc2c(nc1N1CCC(Oc3ccc4c(c3)C(=O)N(C)CC4)CC1)CNC2=O [Example 138, 2-methyl-7-((1-(3-methyl-5-oxo-6,7-dihydro-5H-pyrrolo[3,4-b]pyridin-2-yl)piperidin-4-yl)oxy)-3,4-dihydroisoquinolin-1(2H)-one] | 390 nM |
| Cc1cc2c(nc1N1CCC(Oc3ccc4c(c3)C(=O)CO4)CC1)CNC2=O [Example 139A, 3-methyl-2-(4-((3-oxo-2,3-dihydrobenzofuran-5-yl)oxy)piperidin-1-yl)-6,7-dihydro-5H-pyrrolo[3,4-b]pyridin-5-one] | 628 nM |
| Cc1cc2c(nc1N1CCC(Oc3ccn4ccnc4c3)CC1)CNC2=O [Example 140, 2-(4-(imidazo[1,2-a]pyridin-7-yloxy)piperidin-1-yl)-3-methyl-6,7-dihydro-5H-pyrrolo[3,4-b]pyridin-5-one] | 4710 nM |
| Cc1cc2c(nc1N1CCC(Oc3cnc4c(c3)NCCO4)CC1)CNC2=O [Example 145, 2-(4-((2,3-dihydro-1H-pyrido[2,3-b][1,4]oxazin-7-yl)oxy)piperidin-1-yl)-3-methyl-6,7-dihydro-5H-pyrrolo[3,4-b]pyridin-5-one] | 2160 nM |

Stronger by EC50, values ahead:

| EC50 | Structure (SMILES) |
| --- | --- |
| 119 nM | COc1ncc(OC2CCN(c3nc4c(cc3C)C(=O)NC4)CC2)cc1C [Example 115, 2-(4-((6-methoxy-5-methylpyridin-3-yl)oxy)piperidin-1-yl)-3-methyl-6,7-dihydro-5H-pyrrolo[3,4-b]pyridin-5-one] |
| 45 nM | Cc1cc2c(nc1N1CCC(Oc3ccc4c(c3)CCCO4)CC1)CNC2=O [Example 116, 2-(4-(chroman-6-yloxy)piperidin-1-yl)-3-methyl-6,7-dihydro-5H-pyrrolo[3,4-b]pyridin-5-one] |
| 17 nM | Cc1cc2c(nc1N1CCC(Oc3ccc4[nH]nc(C)c4c3)CC1)CNC2=O [Example 117, 3-methyl-2-(4-((3-methyl-1H-indazol-5-yl)oxy)piperidin-1-yl)-6,7-dihydro-5H-pyrrolo[3,4-b]pyridin-5-one] |
| 141 nM | Cc1cc2c(nc1N1CCC(Oc3ccc4c(c3)CCC(=O)N4)CC1)CNC2=O [Example 118, 6-((1-(3-methyl-5-oxo-6,7-dihydro-5H-pyrrolo[3,4-b]pyridin-2-yl)piperidin-4-yl)oxy)-3,4-dihydroquinolin-2(1H)-one] |
| 149 nM | Cc1ccc(OC2CCN(c3nc4c(cc3C)C(=O)NC4)CC2)cc1C [Example 119, 2-(4-(3,4-dimethylphenoxy)piper-idin-1-yl)-3-methyl-6,7-dihydro-5H-pyrrolo[3,4-b]pyridin-5-one] |
| 256 nM | Cc1cc2c(nc1N1CCC(Oc3ccc(OCC(F)(F)F)nc3)CC1)CNC2=O [Example 120, 3-methyl-2-(4-((6-(2,2,2-trifluoroethoxy)pyridin-3-yl)oxy)piperidin-1-yl)-6,7-dihydro-5H-pyrrolo[3,4-b]pyridin-5-one] |
| 144 nM | Cc1nc2cc(OC3CCN(c4nc5c(cc4C)C(=O)NC5)CC3)ccc2o1 [Example 123, 3-methyl-2-(4-((2-methylbenzo[d]oxazol-5-yl)oxy)piperidin-1-yl)-6,7-dihydro-5H-pyrrolo[3,4-b]pyridin-5-one] |
| 216 nM | Cc1cc2c(nc1N1CCC(Oc3ccc4c(c3)COC4(C)C)CC1)CNC2=O [Example 126, 2-(4-((1,1-dimethyl-1,3-dihydro-2-benzofuran-5-yl)oxy)piperidin-1-yl)-3-methyl-6,7-dihydro-5H-pyrrolo[3,4-b]pyridin-5-one] |
| 105 nM | Cc1cc2c(nc1N1CCC(Oc3ccc4c(c3)C(C)(C)CO4)CC1)CNC2=O [Example 130, 2-(4-((3,3-dimethyl-2,3-dihydrobenzofuran-5-yl)oxy)piperidin-1-yl)-3-methyl-6,7-dihydro-5H-pyrrolo[3,4-b]pyridin-5-one] |
| 30 nM | Cc1cc2c(nc1N1CCC(Oc3ccc4c(c3)OCCO4)CC1)CNC2=O [Example 132, 2-(4-((2,3-dihydrobenzo[b][1,4]dioxin-6-yl)oxy)piperidin-1-yl)-3-methyl-6,7-dihydro-5H-pyrrolo[3,4-b]pyridin-5-one] |
| 167 nM | Cc1ccc(OC2CCN(c3nc4c(cc3C)C(=O)NC4)CC2)cc1F [Example 134, 2-(4-(3-fluoro-4-methylphenoxy)piperidin-1-yl)-3-methyl-6,7-dihydro-5H-pyrrolo[3,4-b]pyridin-5-one] |
| 217 nM | Cc1cc2c(nc1N1CCC(Oc3ccc4c(c3)C(=O)NCC4)CC1)CNC2=O [Example 135, 7-((1-(3-methyl-5-oxo-6,7-dihydro-5H-pyrrolo[3,4-b]pyridin-2-yl)piperidin-4-yl)oxy)-3,4-dihydroisoquinolin-1(2H)-one] |
| 106 nM | Cc1cc2c(nc1N1CCC(Oc3cnn(C)c3)CC1)CNC2=O [Example 139, 3-methyl-2-(4-((1-methyl-1H-pyrazol-4-yl)oxy)piperidin-1-yl)-6,7-dihydro-5H-pyrrolo[3,4-b]pyridin-5-one] |
| 270 nM | Cc1cc2c(nc1N1CCC(Oc3cn[nH]c3)CC1)CNC2=O [Example 142, 2-(4-((1H-pyrazol-4-yl)oxy)piperidin-1-yl)-3-methyl-6,7-dihydro-5H-pyrrolo[3,4-b]pyridin-5-one] |
| 101 nM | Cc1cc2c(nc1N1CCC(Oc3ccc(O[C@@H](C)CO)nc3)CC1)CNC2=O [Example 143A, (S)-2-(4-((6-((1-hydroxypropan-2-yl)oxy)pyridin-3-yl)oxy)piperidin-1-yl)-3-methyl-6,7-dihydro-5H-pyrrolo[3,4-b]pyridin-5-one] |
| 117 nM | Cc1cc2c(nc1N1CCC(Oc3ccc(O[C@H](C)CO)nc3)CC1)CNC2=O [Example 143B, (R)-2-(4-((6-((1-hydroxypropan-2-yl)oxy)pyridin-3-yl)oxy)piperidin-1-yl)-3-methyl-6,7-dihydro-5H-pyrrolo[3,4-b]pyridin-5-one] |
| 316 nM | Cc1cc2c(nc1N1CCC(Oc3ccc4c(c3)CCNC4)CC1)CNC2=O [Example 144, 3-Methyl-2-(4-((1,2,3,4-tetrahydroisoquinolin-6-yl)oxy)piperidin-1-yl)-6,7-dihydro-5H-pyrrolo[3,4-b]pyridin-5-one] |
